The text below walks through data of patent US20200055844A1, “4-SULFONYLAMINOCARBONYLQUINOLINE DERIVATIVES FOR INCREASING CFTR ACTIVITY” (Proteostasis Therapeutics, Inc., priority 2017, published 2020).

Molecules are shown by their SMILES.

T1 sequence (P13569 with tags, fused parts or gaps DEL508-508): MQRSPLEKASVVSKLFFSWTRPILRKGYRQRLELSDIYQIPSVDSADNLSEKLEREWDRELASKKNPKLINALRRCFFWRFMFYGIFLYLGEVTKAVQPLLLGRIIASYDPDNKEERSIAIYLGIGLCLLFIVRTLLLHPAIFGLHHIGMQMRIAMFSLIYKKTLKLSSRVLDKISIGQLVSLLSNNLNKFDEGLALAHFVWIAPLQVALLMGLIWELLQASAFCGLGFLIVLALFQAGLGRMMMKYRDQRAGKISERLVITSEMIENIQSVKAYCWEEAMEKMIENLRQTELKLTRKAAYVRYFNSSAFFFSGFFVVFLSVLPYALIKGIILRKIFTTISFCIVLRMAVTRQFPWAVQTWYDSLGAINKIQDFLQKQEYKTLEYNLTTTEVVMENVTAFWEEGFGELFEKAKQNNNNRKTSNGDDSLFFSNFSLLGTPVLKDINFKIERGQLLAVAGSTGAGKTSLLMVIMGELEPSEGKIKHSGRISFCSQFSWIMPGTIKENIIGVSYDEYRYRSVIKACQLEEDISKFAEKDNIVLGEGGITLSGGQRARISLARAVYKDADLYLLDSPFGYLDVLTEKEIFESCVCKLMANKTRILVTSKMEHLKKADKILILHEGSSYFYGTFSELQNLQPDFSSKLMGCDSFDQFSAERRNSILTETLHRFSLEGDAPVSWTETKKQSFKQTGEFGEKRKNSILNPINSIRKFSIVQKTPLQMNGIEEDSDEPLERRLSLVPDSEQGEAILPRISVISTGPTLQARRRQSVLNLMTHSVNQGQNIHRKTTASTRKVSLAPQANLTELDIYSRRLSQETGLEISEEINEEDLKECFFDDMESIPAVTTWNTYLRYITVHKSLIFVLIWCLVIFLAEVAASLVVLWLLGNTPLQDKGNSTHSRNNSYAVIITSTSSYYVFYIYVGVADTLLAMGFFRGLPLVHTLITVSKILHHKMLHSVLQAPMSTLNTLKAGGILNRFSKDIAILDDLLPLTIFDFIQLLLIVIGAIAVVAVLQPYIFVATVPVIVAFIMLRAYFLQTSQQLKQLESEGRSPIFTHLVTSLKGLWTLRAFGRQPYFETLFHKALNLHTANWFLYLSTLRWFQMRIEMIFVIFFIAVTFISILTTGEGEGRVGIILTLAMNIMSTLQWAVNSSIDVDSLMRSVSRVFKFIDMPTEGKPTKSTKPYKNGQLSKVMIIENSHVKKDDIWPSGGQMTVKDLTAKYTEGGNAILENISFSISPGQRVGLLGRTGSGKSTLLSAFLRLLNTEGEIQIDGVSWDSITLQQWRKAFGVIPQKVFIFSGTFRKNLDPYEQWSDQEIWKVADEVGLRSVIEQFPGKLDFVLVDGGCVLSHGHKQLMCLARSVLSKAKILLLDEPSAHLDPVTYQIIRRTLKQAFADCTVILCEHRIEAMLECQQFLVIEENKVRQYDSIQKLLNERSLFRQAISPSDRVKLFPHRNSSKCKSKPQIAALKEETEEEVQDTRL

The test has as its target T1, ΔF508-CFTR (Homo sapiens, UniProt P13569, DEL508-508).
T1 construct: Primary lung epithelial cells homozygous for the Cystic Fibrosis-causing ΔF508 mutation were differentiated; endogenous in cells; host or cells: primary lung (bronchial) epithelial cells (hBE) homozygous for ΔF508, differentiated at an air-liquid interface
Briefly: hBE equivalent current (Ieq) assay. The settings on record: AUC of equivalent chloride current, % of CFTR amplifier (Compound A)+VX-809 (3 uM); compound at 10 uM and Compound A at 3 uM; primary lung epithelial cells homozygous ΔF508, 24 hours treatment. It counts as cell-based. As to the method:
ii. hBE Equivalent Current (Ieq) Assay
Primary lung epithelial cells homozygous for the Cystic Fibrosis-causing ΔF508 mutation were differentiated for a minimum of 4 weeks in an air-liquid interface on Costar 24 well HTS filter plates prior to the equivalent current (Ieq) measurements. Cells were apically mucus-washed for 30 minutes 24 h prior to treatment with compounds. The basolateral media was removed and replaced with media containing the compound of interest diluted to its final concentration from DMSO stocks. Treated cells were incubated at 37° C. and 5% CO2 for 24 hours. At the end of the treatment period, the media was changed to the Ieq experimental solution for 2 hours before the experiment and plates are maintained in a CO2-free incubator during this period. The plates containing the cells were then placed in pre-warmed heating blocks at 36° C.±0.5 for 15 minutes before measurements are taken. The transepithelial voltage (VT) and conductance (Gr) were measured using a custom 24 channel current clamp (TECC-24) with 24 well electrode manifold. The Ieq assay measurements were made following additions with standardized time periods: • 1. The baseline VT and Gr values were measured for approximately 20 minutes. • 2. Benzamil was added to block ENaC for 15 minutes. • 3. Forskolin plus VX-770 were added to maximally activate ΔF508-CFTR for 27 minutes. • 4. Bumetanide was added to inhibit the NaK2Cl cotransporter and shut-off secretion of chloride.
The activity data captured was the area under the curve (AUC) for the traces of the equivalent chloride current. The AUC was collected from the time of the forskolin/VX-770 addition until the inhibition by bumetanide addition. Correction in response to compound treatment was scored as the increase in the AUC for compound-treated samples over that of vehicle-treated samples.
(+ indicates activity <100% of a CFTR amplifier (Compound A)+VX-809 (3 uM) with compound at 10 uM and Compound A at 3 uM; ++ indicates activity ≥100% and <200% of CFTR amplifier+VX-809 (3 uM) with compound at 10 uM and Compound A at 3 uM; +++ indicates activity >200% of CFTR amplifier+VX-809 (3 uM) with compound at 10 uM and Compound A at 3 uM.
Consider `Cc1c(-c2cc(C(=O)NS(C)(=O)=O)c3c(O[C@H](C)c4ccccc4)ccc(C)c3n2)sc2ccccc12` [Compound 1], for which the Activity result was “+++ (activity >200% of CFTR amplifier+VX-809 (3 uM) with compound at 10 uM and Compound A at 3 uM)”.
Next, `Cc1c(-c2cc(C(=O)NS(C)(=O)=O)c3c(O[C@H](C)c4ccccc4)ccc(C)c3n2)oc2ccccc12` [Compound 2]: “+++ (activity >200% of CFTR amplifier+VX-809 (3 uM) with compound at 10 uM and Compound A at 3 uM)”; `Cc1c(-c2cc(C(=O)NS(=O)(=O)C3CC3)c3c(O[C@H](C)c4ccccc4)ccc(C)c3n2)sc2ccccc12` [Compound 3]: “++ (activity ≥100% and <200% of CFTR amplifier+VX-809 (3 uM) with compound at 10 uM and Compound A at 3 uM)”.
The value for `Cc1c(-c2cc(C(=O)NS(=O)(=O)C3CC3)c3c(O[C@H](C)c4ccccc4)ccc(C)c3n2)oc2ccccc12` [Compound 4] was “++ (activity ≥100% and <200% of CFTR amplifier+VX-809 (3 uM) with compound at 10 uM and Compound A at 3 uM)”; that for `Cc1c(-c2cc(C(=O)NS(=O)(=O)N3CCOCC3)c3c(O[C@H](C)c4ccccc4)ccc(C)c3n2)sc2ccccc12` [Compound 7] was “+++ (activity >200% of CFTR amplifier+VX-809 (3 uM) with compound at 10 uM and Compound A at 3 uM)”; that for `Cc1c(-c2cc(C(=O)NS(=O)(=O)N3CCOCC3)c3c(O[C@H](C)c4ccccc4)ccc(C)c3n2)oc2ccccc12` [Compound 8] was “+ (activity <100% of a CFTR amplifier (Compound A)+VX-809 (3 uM) with compound at 10 uM and Compound A at 3 uM)”.
The value for `Cc1c(-c2cc(C(=O)NS(=O)(=O)c3ccccc3)c3c(O[C@H](C)c4ccccc4)ccc(C)c3n2)sc2ccccc12` [Compound 9] was “++ (activity ≥100% and <200% of CFTR amplifier+VX-809 (3 uM) with compound at 10 uM and Compound A at 3 uM)”; that for `Cc1c(-c2cc(C(=O)NS(=O)(=O)c3ccccc3)c3c(O[C@H](C)c4ccccc4)ccc(C)c3n2)oc2ccccc12` [Compound 10] was “++ (activity ≥100% and <200% of CFTR amplifier+VX-809 (3 uM) with compound at 10 uM and Compound A at 3 uM)”.
`Cc1c(-c2cc(C(=O)NS(=O)(=O)c3cccc(N)n3)c3c(O[C@H](C)c4ccccc4)ccc(C)c3n2)sc2ccccc12` [Compound 11]: the Activity entry is “++ (activity ≥100% and <200% of CFTR amplifier+VX-809 (3 uM) with compound at 10 uM and Compound A at 3 uM)”.
Next, `Cc1c(-c2cc(C(=O)NS(=O)(=O)c3cccc(N)n3)c3c(O[C@H](C)c4ccccc4)ccc(C)c3n2)oc2ccccc12` [Compound 12]: “++ (activity ≥100% and <200% of CFTR amplifier+VX-809 (3 uM) with compound at 10 uM and Compound A at 3 uM)”.
Next, `Cc1c(-c2cc(C(=O)NS(=O)(=O)c3cccc(N)c3)c3c(O[C@H](C)c4ccccc4)ccc(C)c3n2)sc2ccccc12` [Compound 13]: “+++ (activity >200% of CFTR amplifier+VX-809 (3 uM) with compound at 10 uM and Compound A at 3 uM)”; `Cc1c(-c2cc(C(=O)NS(=O)(=O)c3cccc(N)c3)c3c(O[C@H](C)c4ccccc4)ccc(C)c3n2)oc2ccccc12` [Compound 14]: “+++ (activity >200% of CFTR amplifier+VX-809 (3 uM) with compound at 10 uM and Compound A at 3 uM)”; `Cc1c(-c2cc(C(=O)NS(=O)(=O)N3CC[C@H](N)C3)c3c(O[C@H](C)c4ccccc4)ccc(C)c3n2)sc2ccccc12` [Compound 15]: “++ (activity ≥100% and <200% of CFTR amplifier+VX-809 (3 uM) with compound at 10 uM and Compound A at 3 uM)”.
The value for `Cc1c(-c2cc(C(=O)NS(=O)(=O)N3CC[C@H](N)C3)c3c(O[C@H](C)c4ccccc4)ccc(C)c3n2)oc2ccccc12` [Compound 16] was “+++ (activity >200% of CFTR amplifier+VX-809 (3 uM) with compound at 10 uM and Compound A at 3 uM)”; that for `Cc1c(-c2cc(C(=O)NS(=O)(=O)c3cnc(N)s3)c3c(O[C@H](C)c4ccccc4)ccc(C)c3n2)sc2ccccc12` [Compound 17] was “+++ (activity >200% of CFTR amplifier+VX-809 (3 uM) with compound at 10 uM and Compound A at 3 uM)”.
Regarding `Cc1c(-c2cc(C(=O)NS(=O)(=O)c3cnc(N)s3)c3c(O[C@H](C)c4ccccc4)ccc(C)c3n2)oc2ccccc12` [Compound 18], the Activity result was “+ (activity <100% of a CFTR amplifier (Compound A)+VX-809 (3 uM) with compound at 10 uM and Compound A at 3 uM)”.
